The series in a line: in vitro. Conditions: human, hela cells.

Data on 78 compounds can be found in paper PMC12040169 (PLOS Biology, 2025).

SMILES strings stand for the structures.

A word on the viability: it is a read-out of living cells in per cent, often relative to untreated cells. Take `Cc1cc(-c2cn(C)nc2C2CCCCN2C(=O)C2CCC2)on1` (stereo not drawn) [CBK283403]: the viability at 28.5 h, 10 µM (% viability) was determined as 83.7%. Same read-out and setting: in the case of `CCc1cc2c(=O)c(-c3nc(C)cs3)c(CCC(=O)O)oc2cc1O` [CBK264838] it was 108%; in that of `COc1ccc(-c2nnc([C@H]3CCN(C(=O)C4CC4)C3)o2)cc1` [CBK289409], 89.6%. Still for that read-out and setting: under `O=C(NC1(c2ccccc2)CCCC1)c1ccc(=O)n(CC(=O)N2CCCCC2)c1` [CBK285631] stands 90.5%.

Regarding `COCC(=O)NC(Cc1ccsc1)c1nc(C)cs1` (stereo not drawn) [CBK282804], for the setting “% viability”, the viability at 28.5 h, 10 µM stood at 99.5%. Turning to `O=C1N[C@@H](CC2CCCCC2)C(=O)N2CCN(C(=O)c3cccc(F)c3)C[C@H]12` [CBK289599], the viability at 28.5 h, 10 µM (% viability) amounted to 115%. Still for that read-out and setting: in the case of `COc1ccc([C@H]2CN(C(C)=O)[C@@H]3CCN(CC4CC4)C[C@H]23)cc1` [CBK285502] it was 98.1%; in that of `CCNC(=S)N1CCN(CCNC=C2C(=O)CC(c3ccco3)CC2=O)CC1` (stereo not drawn) [CBK264742], 91.7%; in that of `CCC(NC(=O)Nc1ccccc1C(=O)O)(C(F)(F)F)C(F)(F)F` [CBK268000], 93.2%. The same measure, in the same setting: in the case of `COc1ccc(-c2cc(=O)[nH]c(SCC(=O)Nc3ccc(C)cc3)n2)cc1` [CBK091867] it was 95.8%; in that of `Nc1ncc(-c2cccc(Br)c2)nc1NCCCO` [CBK063603], 91.3%. With `Nc1ncnc2c1ncn2[C@H]1C[C@@H](O)[C@@H](CO)O1` [CBK201382], the viability at 28.5 h, 10 µM (% viability) came out at 94.9%. On the same count and under the same terms, under `Oc1ccc(-c2cncc(Nc3ccc(Br)c(Cl)c3)n2)cc1` [CBK107806] stands 89.4%. Same read-out and setting: under `O=C(c1ccc(-c2cncc(-c3ccc(Cl)s3)n2)cc1)N1CCOCC1` [CBK138517] stands 92.2%; under `FC(F)(F)c1nnc2ccc(N3CCN(Cc4ccsc4)CC3)nn12` [CBK305930], 88.6%; under `O=C(CSc1nnnn1-c1ccc(O)cc1)NC1CCCC1` [CBK295659], 90.6%.

Turning to `CC(C)[C@@H](CO)Nc1cncc(-c2cccnc2)n1` [CBK065467], the viability at 28.5 h, 10 µM (% viability) amounted to 98.5%. Same read-out and setting: under `O=C(c1cc(F)c(F)cc1F)N1CCC2(CCCN(CCS(=O)(=O)c3ccccc3)C2)C1` (stereo not drawn) [CBK132003] stands 105%; under `CC(=O)c1c(C)nc2nc(-c3ccncc3)nn2c1C` [CBK288552], 106%; under `CCCc1cc(=O)oc2cc(OCc3ccc(C(=O)O)o3)ccc12` [CBK264786], 108%. Still for that read-out and setting: under `Clc1ccc(Cl)c(-c2ccc(CNCCCN3CCOCC3)o2)c1` [CBK278190C] stands 89.3%; under `O=C(Cc1ccccn1)NC(Cc1cccs1)c1ccccn1` (stereo not drawn) [CBK282243], 93.1%; under `Cc1cc(O)ccc1Nc1cc(-c2ccccc2N(C)C)ncn1` [CBK091051], 104%.

With `Cc1nn(CC(=O)NC2CC2)c(=O)c2cc3ccsc3n12` [CBK284026], the viability at 28.5 h, 10 µM (% viability) turned out to be 92.3%.

As to `CSCC(=O)N1CC[C@H](NC(=O)NC2CCCCC2)[C@H]1C(=O)N1CCC[C@@H]1C(N)=O` [CBK289265], the viability at 28.5 h, 10 µM (% viability) came to 124%. Still for that read-out and setting: in the case of `Cc1nc2ccc(C(=O)N(C)CCN(C)C)cn2c1N(C)C(=O)c1cccs1` [CBK146528] it was 120%.

For `Cc1nn(C)cc1-c1cncn1CC(C)N1CCC(C)CC1` (stereo not drawn) [CBK281789], under “% viability”, the viability at 28.5 h, 10 µM was 91.4%.

On to `CS(=O)(=O)c1ccc(-c2ccc3c(c2)CCN(C2CCN(C(=O)Oc4ccccc4)CC2)C3)cc1` [CBK169518], for which the viability at 28.5 h, 10 µM is 90.1%. Regarding `CC(Oc1ccc(F)cc1)C(=O)N1CCCc2c(cnn2C)C1` (stereo not drawn) [CBK285230], the viability at 28.5 h, 10 µM (% viability) was 82.1%.

In the case of `c1ccc(-c2nnc(SCc3nnc(-c4ccccc4)o3)[nH]2)cc1` [CBK270003], the viability at 28.5 h, 10 µM (% viability) worked out at 104%. On the same count and under the same terms, in the case of `Cc1ccc2[nH]c(=O)c(CNc3ccc4[nH]ncc4c3)cc2c1` [CBK281936] it was 73%. Same read-out and setting: in the case of `CN1CCN(c2nc(-c3ccoc3)cn3ccnc23)CC1` [CBK066645] it was 97.1%; in that of `O=C(Nc1cccc(C(F)(F)F)c1)N[C@H]1[C@H](O)[C@@H](N2CCCC2)[C@@H]2OC[C@H]1O2` [CBK288828], 105%.

Take `CC(C)c1ccc(/C=C/C(=O)NCC2COc3ccccc3O2)cc1` (stereo not drawn) [CBK149619]: the viability at 28.5 h, 10 µM (% viability) turned out to be 120%.

Take `COc1cccc(-c2cccc(NS(=O)(=O)c3ccc4c(c3)CCC(=O)N4)c2)c1` [CBK286372]: the viability at 28.5 h, 10 µM (% viability) is 105%.

For the compound `Cn1cncc1CN1C[C@@H]2CCCN2C[C@@H]1Cc1ccccc1` [CBK283027], the viability at 28.5 h, 10 µM (% viability) amounted to 91.9%. Same read-out and setting: under `Cc1ccc(S(=O)(=O)Nc2ccnc(Cl)n2)cc1` [CBK067661] stands 90.7%. For `O=C(O)c1cccc(-n2cc(-c3cccc(C(F)(F)F)c3)nn2)c1` [CBK112949], the viability at 28.5 h, 10 µM (% viability) was 114%. Still for that read-out and setting: in the case of `COc1cccc(C(=O)N2CCC(Cc3ccc(-c4ccccc4)cc3)(C(N)=O)CC2)c1` [CBK285770] it was 103%; in that of `COc1ccc(C(=O)OC(C)(C)C)c(-c2cncc(N3CCCCC3CCO)n2)c1` (stereo not drawn) [CBK037786], 104%; in that of `Cc1cc(NC(=O)C(=O)NCCCN2CCOCC2)ccc1Br` [CBK268046], 94.7%. Same read-out and setting: in the case of `COc1ccc(C(CNC(=O)C2C(C(=O)O)C2(C)C)N(C)C)cc1` (stereo not drawn) [CBK286700] it was 110%; in that of `CC[C@H]1CN2CC[C@H]1C[C@@H]2CNC(=O)Nc1cccc(C#N)c1` [CBK288748], 87.4%. As to `CC(NC(=O)N(CCCN)Cc1c[nH]c(-c2ccccc2)n1)c1cccc2ccccc12` (stereo not drawn) [CBK034672C], the viability at 28.5 h, 10 µM (% viability) was 119%.

Turning to `COc1ccc2cc(-c3cc(C(=O)O)c4ccccc4n3)ccc2c1` [CBK296093], the viability at 28.5 h, 10 µM (% viability) was determined as 88.4%.

Take `Cc1ccc2nc(-c3ccc(NC(=O)CSc4nc(-c5ccccc5)cc(=O)[nH]4)cc3)sc2c1` [CBK265861]: the viability at 28.5 h, 10 µM (% viability) worked out at 78.5%. Still for that read-out and setting: in the case of `Cc1csc2c(C3CCCN(C(=O)c4ccccn4)C3)nc(C)n12` (stereo not drawn) [CBK284594] it was 98.6%.

For the compound `COCCNc1cc(-c2ccc(C(C)=O)s2)ncn1` [CBK090791], the viability at 28.5 h, 10 µM (% viability) was 115%. Turning to `COc1cccc2c1OC1(CCN(C(=O)c3cccn3C)CC1)OC2` [CBK061166], for the setting “% viability, bulk resorufin, single well”, the viability at 28.5 h, 10 µM came out at 85.1%. Take `COc1cc(-c2nc(S(=O)(=O)c3ccccc3)c(N3CCOCC3)o2)cc(OC)c1OC` [CBK074539]: the viability at 28.5 h, 10 µM (% viability) is 90.1%. On the same count and under the same terms, under `O=C(NCCCNC(=O)c1ccc(Br)o1)c1ccccn1` [CBK269430] stands 107%; under `O=C(O)c1ccc(-c2ccc(/C=c3\sc4nc5ccccc5n4c3=O)o2)cc1` [CBK261817], 99.3%.

On to `COc1cc(CNc2nc(O)cc(C(F)(F)F)n2)cc(OC)c1OC` [CBK002390], for which the viability at 28.5 h, 10 µM (% viability) stood at 90.3%.

With `O=S(=O)(Nc1cccc2ncccc12)c1ccc(OC(F)(F)F)cc1` [CBK044490], the viability at 28.5 h, 10 µM (% viability) came to 112%. Same read-out and setting: under `Nn1cnn2c(SCc3ccccc3)nnc12` [CBK263188] stands 112%; under `Cc1cc(C)n(-c2ccnc(NCCc3cccnc3)n2)n1` [CBK288615], 94.7%; under `O=C(CSc1ccc(-c2ccncc2)nn1)Nc1ccc(F)cc1` [CBK287297], 91%.

In the case of `Cc1cnc2c(C(=O)Nc3cccc(CCc4ccncc4)c3)cnn2c1` [CBK285558], where the note is “% viability”, the viability at 28.5 h, 10 µM is 106%.

`c1ccc(-c2n[nH]cc2-c2cncn2CCCN2CCCCC2)cc1` [CBK281464]: the viability at 28.5 h, 10 µM (% viability) amounted to 90.4%. As to `CN1CCN([C@H]2[C@@H]3OC[C@@H](O3)[C@@H](NCc3ccc(N(C)C)cc3)[C@@H]2O)CC1` [CBK288824], where the note is “% viability”, the viability at 28.5 h, 10 µM worked out at 109%.

As to `CNC(=O)c1cccc(NC(=O)c2cc(-c3cccnc3)cnc2NCc2ccc3c(c2)OCO3)c1` [CBK076291], the viability at 28.5 h, 10 µM (% viability) was 89.4%. Still for that read-out and setting: in the case of `CCOC(=O)Cc1nnc(-c2ccc(Cl)cc2)[nH]1` [CBK021882] it was 89.1%; in that of `O=C(Cn1cccc2cc(C3CCNCC3)nc1-2)N1CCCCCC1` [CBK284679], 95.6%. The same measure, in the same setting: under `Cc1cc(C(=O)N2CCN(Cc3ccco3)C[C@@H]2C(C)C)c(C)[nH]1` [CBK284254] stands 88.2%; under `Cc1nc2nc(N)nn2c(C)c1CCC(=O)OCc1cccc(C#N)c1` [CBK306083], 88.1%.

`CN(c1nc(-c2cccnc2)cn2ccnc12)C1CCCCC1` [CBK093609]: the viability at 28.5 h, 10 µM (% viability) stood at 87%. For the compound `Cc1ncsc1CCOc1cc(N2CCCC2)ncn1` [CBK115895], the viability at 28.5 h, 10 µM (% viability) was determined as 85.5%. On the same count and under the same terms, in the case of `O=c1[nH]cc(-c2ccc(F)cc2)cc1CNCc1ccc(F)cc1` [CBK284695] it was 96.1%; in that of `C[C@@H](Nc1nc(-c2cccc(-c3ccccc3)c2)cnc1N)c1ccccc1` [CBK063704], 96.3%; in that of `Cn1ccnc1C1(O)C2CCCC1CN(Cc1ccccc1F)C2` (stereo not drawn) [CBK285206], 97.2%. Still for that read-out and setting: under `O=[N+]([O-])c1cc(CN2CCN(c3ccccc3)CC2)c(O)c2ncccc12` [CBK218696] stands 99.6%. Same read-out and setting: in the case of `COc1ccc(OC)c(NC(=O)c2c[nH]c(=O)n(-c3ccc(F)cc3)c2=O)c1` [CBK287552] it was 99%; in that of `CC(=O)Nc1ccc(S(=O)(=O)c2cc(O)ccc2O)cc1` [CBK261372], 85.9%; in that of `O=C(O)c1ccc(NC(=O)c2ncn(-c3ccccc3)n2)cc1` [CBK269445], 97.7%. Regarding `O=C(CSc1nnc(-c2cccnc2)o1)c1ccc(Oc2ccccc2)cc1` [CBK266327], the viability at 28.5 h, 10 µM (% viability) was found to be 88.1%.

Turning to `O=C1c2ccccc2-c2onc3c(NCc4ccccc4)cc(Nc4ccccc4)c1c23` [CBK261979], the viability at 28.5 h, 10 µM (% viability) came out at 84%. On the same count and under the same terms, in the case of `COc1cc(C(=O)N2CCCC3(CCN(C(=O)Cc4c[nH]c5ccccc45)C3)C2)cc(OC)c1OC` (stereo not drawn) [CBK131601] it was 96%. Regarding `COC(=O)c1sccc1NC(=O)c1ccncc1` [CBK265438], the viability at 28.5 h, 10 µM (% viability) was found to be 85.4%.
